Legend:
Type in all cases: in vivo
[1] = system: chickweed (common chickweed, Stellaria media); assay: Test D pre-/postemergence: chickweed
How it was run: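 We sprayed chemicals in a surfactant-containing solvent onto silt loam at planting (preemergence) and onto 1- to 4-leaf seedlings (postemergence). Fourteen to 21 days later, each species was rated visually from 0 to 100 relative to controls.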

[2] = system: nutsedge, yellow (yellow nutsedge, Cyperus esculentus); assay: Test E pre-/postemergence: nutsedge, yellow; details: Preemergence, scale 0 to 100
From the text: Seeds of plant species selected from corn (Zea mays), soybean (Glycine max), velvetleaf (Abutilon theophrasti), lambsquarters (Chenopodium album), poinsettia, wild (wild poinsettia, Euphorbia heterophylla), pigweed, palmer (palmer pigweed, Amaranthus palmeri), waterhemp (common waterhemp, Amaranthus rudis), smartweed (ladysthumb smartweed, Polygonum persicaria), surinam grass (Brachiaria decumbens), crabgrass, large (large crabgrass, Digitaria sanguinalis), crabgrass, Brazil (Brazilian crabgrass, Digitaria horizontalis), panicum, fall (fall panicum, Panicum dichotomiflorum), foxtail, giant (giant foxtail, Setaria faberii), foxtail, green (green foxtail, Setaria viridis), goosegrass (Eleusine indica), johnsongrass (Sorghum halepense), ragweed (common ragweed, Ambrosia elation), barnyardgrass (Echinochloa crus-galli), sandbur (southern sandbur, Cenchrus echinatus), arrowleaf sida (Sida rhombifolia), ryegrass, Italian (Italian ryegrass, Lolium multiflorum), dayflower, (VA) (Virginia dayflower, Commelina virginica), field bindweed (Convolvulus arvensis), cocklebur (common cocklebur, Xanthium strumarium), morningglory (Ipomoea coccinea), nightshade (eastern black nightshade, Solanum ptycanthum), kochia (Kochia scoparia), nutsedge, yellow (yellow nutsedge, Cyperus esculentus) and beggarticks (hairy beggarticks, Bidens pilosa) were planted into a silt loam soil and treated preemergence with test chemicals formulated in a non-phytotoxic solvent mixture which included a surfactant. At the same time, plants selected from these crop and weed species were planted in pots containing a growing medium comprising spaghnum peat moss, vermiculite, wetting agent and starter nutrients and treated with postemergence applications of some of the test chemicals formulated in the same manner. Plants ranged in height from 2 to 18 cm for postemergence treatments (1- to 4-leaf stage).
(§1) Treated plants and controls were maintained in a greenhouse for 14 to 21 days, after which time all species were compared to controls and visually evaluated. Plant response ratings, summarized in Table E, are based on a scale of 0 to 100 where 0 is no effect and 100 is complete control. A dash (-) response means no test result.

[3] = system: bromegrass, downy (downy bromegrass, Bromus tectorum); assay: Test C pre-/postemergence: bromegrass, downy
From the text: Seeds of plant species selected from blackgrass (Alopecurus myosuroides), bromegrass, downy (downy bromegrass, Bromus tectorum), foxtail, green (green foxtail, Setaria viridis), ryegrass, Italian (Italian ryegrass, Lolium multiflorum), winter wheat (Triticum aestivum), wild oat (Avena fatua), galium (catchweed bedstraw, Galium aparine), bermudagrass (Cynodon dactylon), surinam grass (Brachiaria decumbens), cocklebur (common cocklebur, Xanthium strumarium), corn (Zea mays), large crabgrass (Digitaria sanguinalis), woolly cupgrass (Eriochloa villosa), foxtail, giant (giant foxtail, Setaria faberii), goosegrass (Eleusine indica), johnsongrass (Sorghum halepense), kochia (Kochia scoparia), lambsquarters (Chenopodium album), morningglory (Ipomoea coccinea), nightshade (eastern black nightshade, Solanum ptycanthum), nutsedge, yellow (yellow nutsedge, Cyperus esculentus), pigweed (Amaranthus retroflexus), ragweed (common ragweed, Ambrosia elation), soybean (Glycine max), common (oilseed) sunflower (Helianthus annuus), Russian thistle (Salsola kali) and velvetleaf (Abutilon theophrasti) were planted into a blend of loam soil and sand and treated preemergence with test chemicals formulated in a non-phytotoxic solvent mixture which included a surfactant.
At the same time, plants selected from these crop and weed species and also barley (winter barley, Hordeum vulgare), canarygrass (Phalaris minor), chickweed (common chickweed, Stellaria media) windgrass (Apera spica-venti) and deadnettle (henbit deadnettle, Lamium amplexicaule) were planted in pots containing Redi-Earth® planting medium (Scotts Company, 14111 Scottslawn Road, Marysville, Ohio 43041) comprising spaghnum peat moss, vermiculite, wetting agent and starter nutrients and treated with postemergence applications of test chemicals formulated in the same manner. Plants ranged in height from 2 to 18 cm (1- to 4-leaf stage) for postemergence treatments.
as §1, with “13” for “14”, “15” for “21”, “C,” for “E,”

[4] = Postemergence, 31 g ai/ha, scale 0 to 100 (0 no effect, 100 complete control)
[5] = Postemergence, 62 g ai/ha, scale 0 to 100 (0 no effect, 100 complete control)
[6] = Postemergence, 125 g ai/ha, scale 0 to 100, 0 no effect, 100 complete control
[7] = Postemergence, 250 g ai/ha, scale 0 to 100 (0 no effect, 100 complete control)
[8] = Postemergence, 16 g ai/ha, scale 0 to 100
[9] = Postemergence, 250 g ai/ha, scale 0 to 100
[10] = Preemergence, 31 g ai/ha, scale of 0 to 100, 0 is no effect, 100 is complete control
[11] = Preemergence, 62 g ai/ha, scale 0 to 100, 0 no effect, 100 complete control
[12] = Preemergence, 125 g ai/ha, scale 0 to 100, 0 no effect, 100 complete control
[13] = Preemergence, 250 g ai/ha, scale 0 to 100, 0 no effect, 100 complete control

| SMILES | Plant response rating: Chickweed [1, 4] | Plant response rating: Chickweed [1, 5] | Plant response rating: Chickweed [1, 6] | Plant response rating: Chickweed [1, 7] | Plant response rating, Chickweed [1, 8] | Plant response rating: Nutsedge, Yellow ([2]; 8 g ai/ha) | Plant response rating: Nutsedge, Yellow ([2]; 16 g ai/ha) | Plant response rating: Nutsedge, Yellow ([2]; 31 g ai/ha) | Plant response rating: Nutsedge, Yellow ([2]; 62 g ai/ha) | Plant response rating: Nutsedge, Yellow ([2]; 125 g ai/ha) | Plant response rating, Bromegrass, Downy [3, 4] | Plant response rating, Bromegrass, Downy [3, 5] | Plant response rating, Bromegrass, Downy [3, 6] | Plant response rating, Bromegrass, Downy [3, 9] | Plant response rating, Bromegrass, Downy [3, 10] | Plant response rating, Bromegrass, Downy [3, 11] | Plant response rating, Bromegrass, Downy [3, 12] | Plant response rating, Bromegrass, Downy [3, 13] | also measured |
| --- | --- | --- | --- | --- | --- | --- | --- | --- | --- | --- | --- | --- | --- | --- | --- | --- | --- | --- | --- |
| Cc1nn(-c2ccc(F)cc2)nc1Cc1ccnc(C(F)(F)F)c1 [Compound 16, 4-[[2-(4-fluorophenyl)-5-methyl-2H-1,2,3-triazol-4-yl]methyl]-2-(trifluoromethyl)pyridine] | 70 | 90 | 95 | 95 | 40 | 0 | 0 | 0 | 20 | 20 | 15 | 15 | 25 | 25 | 5 | 10 | 50 | 100 |  |
| Cc1nn(-c2ccc(C(F)(F)F)cc2)nc1Cc1ccnc(C(F)(F)F)c1 [Compound 47, 4-[[5-methyl-2-[4-(trifluoromethyl)phenyl]-2H-1,2,3-triazol-4-yl]methyl]-2-(trifluoromethyl)pyridine] |  |  |  |  |  |  | 0 | 0 | 10 | 10 | 10 | 30 | 50 | 65 | 15 | 40 | 90 | 100 | Plant response rating: Nutsedge, Yellow ([2]; 250 g ai/ha): 35 |
| Cc1nn(-c2ccc(F)cc2)nc1Oc1ccnc(C(F)(F)F)c1 [Compound 129, 4-[[2-(4-fluorophenyl)-5-methyl-2H-1,2,3-triazol-4-yl]oxy]-2-(trifluoromethyl)pyridine] | 90 | 100 | 100 | 100 | 75 | 0 | 0 | 0 | 0 | 20 | 35 | 35 | 40 | 40 | 30 | 80 | 95 | 100 | Plant response rating, Chickweed ([1]; Preemergence, 16 g ai/ha, scale 0 to 100 (0 no effect, 100 complete control)): 0; Plant response rating, Chickweed ([1]; Preemergence, 31 g ai/ha, scale 0 to 100 (0 no effect, 100 complete control)): 100; Plant response rating, Chickweed ([1]; Preemergence, 62 g ai/ha, scale 0 to 100): 100; Plant response rating, Chickweed ([1]; Preemergence, 125 g ai/ha, scale 0 to 100): 100; Plant response rating, Chickweed ([1]; Preemergence, 250 g ai/ha, scale 0 to 100): 100 |
